ChEMBL document CHEMBL4017443, “(-)-UB006: A new fatty acid synthase inhibitor and cytotoxic agent without anorexic side effects” (Eur J Med Chem, 2017)
Calls of active or inactive are those of the source. The rule behind the calls is not given here.

Experiments:
[1] = tested on: MCF7; assay: cells; details: Homo sapiens, MCF7, 72 h
[2] = tested on: HCT-116; assay: Antiproliferative activity against human HCT116 cells after 72 hrs by MTT assay; type: functional, cell-based; details: HCT-116, 72 h
[3] = tested on: Fibroblast; assay: Antiproliferative activity against fibroblasts (unknown origin) after 72 hrs by MTT assay; type: cell-based
[4] = tested on: MIA PaCa-2; assay: Antiproliferative activity against human MIAPaCa2 cells after 72 hrs by MTT assay; type: functional, cell-based; details: MIA PaCa-2, 72 h
[5] = tested on: PC-3; assay: Antiproliferative activity against human PC3 cells after 72 hrs by MTT assay; type: functional, cell-based; details: PC-3, 72 h
[6] = tested on: SK-BR-3; assay: Antiproliferative activity against human SKBR3 cells after 72 hrs by MTT assay; type: functional, cell-based; details: SK-BR-3, 72 h
[7] = tested on: OVCAR-3; assay: Antiproliferative activity against human OVCAR3 cells after 72 hrs by MTT assay; type: functional, cell-based; details: OVCAR-3, 72 h
[8] = tested on: MDA-MB-231; assay: Antiproliferative activity against human MDA-MB-231 cells after 72 hrs by MTT assay; type: functional, cell-based; details: MDA-MB-231, 72 h
[9] = target: Fatty acid synthase (Rattus norvegicus, UniProt P12785); assay: Inhibition of fatty acid synthase in rat cytosolic hepatic extracts using acetyl CoA and malonyl CoA as substrate preincubated for 30 mins followed by acetyl CoA addition and subsequent incubation for 3 mins prior to malonyl CoA addition measured after 10 mins in presence of NADPH by spectrophotometric method
[10] = target: Ribosomal protein S6 kinase beta-1 (Homo sapiens) (UniProt P23443); assay: Inhibition of S6K1 phosphorylation at T389 in human OVCAR3 cells at 29.74 uM after 24 hrs by Western blot analysis; type: cell-based
[11] = target: T1, Carnitine O-palmitoyltransferase 1, liver isoform (Rattus norvegicus, UniProt P32198); assay: Inhibition of rat wild-type CPT1A expressed in yeast mitochondrial extracts using L-[methyl-3H]carnitine and palmitoyl-CoA as substrates preincubated for 1 min followed by substrate addition measured for 5 mins by radiometric method
T1 sequence (P32198 whole entry): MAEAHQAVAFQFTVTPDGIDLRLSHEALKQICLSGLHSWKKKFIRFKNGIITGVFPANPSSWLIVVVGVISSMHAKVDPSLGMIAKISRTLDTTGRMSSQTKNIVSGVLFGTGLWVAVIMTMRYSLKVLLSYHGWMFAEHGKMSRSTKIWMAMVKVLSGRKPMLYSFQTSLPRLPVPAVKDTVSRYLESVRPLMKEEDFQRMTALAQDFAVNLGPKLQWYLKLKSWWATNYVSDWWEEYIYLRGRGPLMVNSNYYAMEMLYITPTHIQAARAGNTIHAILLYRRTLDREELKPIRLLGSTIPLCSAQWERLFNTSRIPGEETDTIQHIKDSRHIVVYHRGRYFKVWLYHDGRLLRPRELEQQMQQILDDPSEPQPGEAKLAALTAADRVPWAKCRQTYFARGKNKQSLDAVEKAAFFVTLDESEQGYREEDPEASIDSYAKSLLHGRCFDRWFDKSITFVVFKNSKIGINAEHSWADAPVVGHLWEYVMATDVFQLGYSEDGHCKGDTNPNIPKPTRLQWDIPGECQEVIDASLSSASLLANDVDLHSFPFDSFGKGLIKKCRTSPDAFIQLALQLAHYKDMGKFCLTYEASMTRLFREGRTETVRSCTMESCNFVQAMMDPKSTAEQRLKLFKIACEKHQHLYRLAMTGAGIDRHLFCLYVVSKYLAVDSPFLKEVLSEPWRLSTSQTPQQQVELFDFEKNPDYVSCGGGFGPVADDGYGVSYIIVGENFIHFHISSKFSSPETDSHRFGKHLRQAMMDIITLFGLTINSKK

[12] = tested on: Rattus norvegicus; assay: Toxicity in icv dosed Sprague-Dawley rats assessed as decrease in body weight; type: organism-based; details: in vivo, icv_or_intrathecal
[13] = tested on: Mus musculus; assay: Toxicity in ip dosed C57/BL6J mouse assessed as decrease in body weight; type: organism-based; details: in vivo
[14] = tested on: Mus musculus; assay: Toxicity in C57/BL6J mouse assessed as decrease in food intake at 15 mg/kg, ip administered once daily for 3 days measured after 2 days; type: organism-based; details: in vivo, 48 h
[15] = target: Fatty acid synthase (Homo sapiens) (UniProt P49327); details: 8 ug/ml
Description: Inhibition of fatty acid synthase in human OVCAR3 cells assessed as reduction in fatty acid synthesis at 8 ug/ml pretreated for 2 hrs followed by [U14C]-acetate addition measured after 2 hrs by scintillation counting method relative to control

[16] = tested on: Rattus norvegicus; assay: Toxicity in Sprague-Dawley rats assessed as decrease in body weight at 33 mM, icv measured every day for 3 days; details: in vivo, icv_or_intrathecal, 72 h, 33000 µM
[17] = tested on: Mus musculus; assay: Toxicity in C57/BL6J mouse assessed as decrease in body weight at 15 mg/kg, ip administered once daily for 3 days measured after 2 days; type: organism-based; details: in vivo, 48 h
[18] = tested on: Rattus norvegicus; assay: Toxicity in Sprague-Dawley rats assessed as decrease in food intake at 30 mM, icv measured after 1 to 22 hrs; details: in vivo, icv_or_intrathecal, 30000 µM

Chain of Fatty acid synthase (P12785 whole entry): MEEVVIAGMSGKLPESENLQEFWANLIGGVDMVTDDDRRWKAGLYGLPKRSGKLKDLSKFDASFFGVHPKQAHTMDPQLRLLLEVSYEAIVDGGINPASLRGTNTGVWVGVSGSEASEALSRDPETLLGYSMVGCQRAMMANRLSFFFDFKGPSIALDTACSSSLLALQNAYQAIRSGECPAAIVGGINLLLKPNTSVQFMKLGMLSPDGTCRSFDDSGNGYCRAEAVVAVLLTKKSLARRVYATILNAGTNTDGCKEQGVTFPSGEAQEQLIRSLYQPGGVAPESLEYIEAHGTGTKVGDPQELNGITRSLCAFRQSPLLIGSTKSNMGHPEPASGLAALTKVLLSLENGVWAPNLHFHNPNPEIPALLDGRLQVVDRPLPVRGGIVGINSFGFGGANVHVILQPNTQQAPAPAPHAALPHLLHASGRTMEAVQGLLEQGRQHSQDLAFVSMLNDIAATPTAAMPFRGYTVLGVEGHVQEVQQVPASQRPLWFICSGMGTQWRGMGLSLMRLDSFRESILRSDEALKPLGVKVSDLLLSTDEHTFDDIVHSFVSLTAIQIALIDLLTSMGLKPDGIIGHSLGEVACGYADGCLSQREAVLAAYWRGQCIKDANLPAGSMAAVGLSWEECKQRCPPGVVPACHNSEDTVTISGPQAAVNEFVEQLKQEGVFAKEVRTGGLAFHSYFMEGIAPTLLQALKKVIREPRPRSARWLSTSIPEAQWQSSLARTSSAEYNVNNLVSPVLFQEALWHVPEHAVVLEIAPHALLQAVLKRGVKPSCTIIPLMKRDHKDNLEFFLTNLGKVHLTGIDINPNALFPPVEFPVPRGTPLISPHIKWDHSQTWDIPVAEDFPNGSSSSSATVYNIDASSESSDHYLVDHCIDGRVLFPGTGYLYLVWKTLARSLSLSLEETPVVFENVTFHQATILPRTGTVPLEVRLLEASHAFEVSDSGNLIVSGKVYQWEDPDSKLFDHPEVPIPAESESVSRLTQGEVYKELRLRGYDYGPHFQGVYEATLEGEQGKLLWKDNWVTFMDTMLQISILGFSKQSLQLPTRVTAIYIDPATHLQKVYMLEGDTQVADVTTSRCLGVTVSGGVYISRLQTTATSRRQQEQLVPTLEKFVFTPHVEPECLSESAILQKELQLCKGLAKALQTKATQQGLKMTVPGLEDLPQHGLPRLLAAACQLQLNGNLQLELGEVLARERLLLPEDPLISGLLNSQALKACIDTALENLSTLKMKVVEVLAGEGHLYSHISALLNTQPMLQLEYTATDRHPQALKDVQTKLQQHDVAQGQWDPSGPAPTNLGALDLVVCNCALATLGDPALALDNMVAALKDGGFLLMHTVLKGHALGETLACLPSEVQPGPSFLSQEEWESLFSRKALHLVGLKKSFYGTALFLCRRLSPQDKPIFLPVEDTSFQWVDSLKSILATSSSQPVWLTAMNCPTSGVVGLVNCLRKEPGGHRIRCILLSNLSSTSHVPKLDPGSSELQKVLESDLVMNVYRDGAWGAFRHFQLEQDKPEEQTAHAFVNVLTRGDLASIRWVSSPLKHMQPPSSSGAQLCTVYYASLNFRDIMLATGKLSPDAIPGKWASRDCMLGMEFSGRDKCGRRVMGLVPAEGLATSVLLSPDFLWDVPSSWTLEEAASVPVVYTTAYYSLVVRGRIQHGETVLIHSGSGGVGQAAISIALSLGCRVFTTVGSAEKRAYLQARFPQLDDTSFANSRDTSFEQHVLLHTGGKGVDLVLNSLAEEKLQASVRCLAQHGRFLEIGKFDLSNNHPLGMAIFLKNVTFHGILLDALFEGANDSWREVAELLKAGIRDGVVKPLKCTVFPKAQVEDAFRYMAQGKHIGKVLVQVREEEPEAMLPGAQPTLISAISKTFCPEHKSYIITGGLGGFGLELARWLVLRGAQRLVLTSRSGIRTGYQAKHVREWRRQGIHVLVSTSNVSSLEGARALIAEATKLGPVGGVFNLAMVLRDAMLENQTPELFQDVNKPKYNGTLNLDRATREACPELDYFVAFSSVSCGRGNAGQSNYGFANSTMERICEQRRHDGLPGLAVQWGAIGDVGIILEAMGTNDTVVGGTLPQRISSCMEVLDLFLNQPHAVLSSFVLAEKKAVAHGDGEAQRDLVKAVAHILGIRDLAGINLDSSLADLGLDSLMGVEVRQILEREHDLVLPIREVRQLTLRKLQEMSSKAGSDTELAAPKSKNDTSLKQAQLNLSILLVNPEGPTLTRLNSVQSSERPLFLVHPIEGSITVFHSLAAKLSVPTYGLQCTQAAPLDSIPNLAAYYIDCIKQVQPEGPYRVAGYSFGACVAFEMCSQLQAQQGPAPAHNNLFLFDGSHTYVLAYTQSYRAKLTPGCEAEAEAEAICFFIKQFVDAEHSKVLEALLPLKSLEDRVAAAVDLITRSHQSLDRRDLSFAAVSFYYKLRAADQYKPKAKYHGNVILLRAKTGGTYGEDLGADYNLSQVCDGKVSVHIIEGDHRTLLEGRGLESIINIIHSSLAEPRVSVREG
Chain of Fatty acid synthase (Homo sapiens) (P49327 whole entry, looked up): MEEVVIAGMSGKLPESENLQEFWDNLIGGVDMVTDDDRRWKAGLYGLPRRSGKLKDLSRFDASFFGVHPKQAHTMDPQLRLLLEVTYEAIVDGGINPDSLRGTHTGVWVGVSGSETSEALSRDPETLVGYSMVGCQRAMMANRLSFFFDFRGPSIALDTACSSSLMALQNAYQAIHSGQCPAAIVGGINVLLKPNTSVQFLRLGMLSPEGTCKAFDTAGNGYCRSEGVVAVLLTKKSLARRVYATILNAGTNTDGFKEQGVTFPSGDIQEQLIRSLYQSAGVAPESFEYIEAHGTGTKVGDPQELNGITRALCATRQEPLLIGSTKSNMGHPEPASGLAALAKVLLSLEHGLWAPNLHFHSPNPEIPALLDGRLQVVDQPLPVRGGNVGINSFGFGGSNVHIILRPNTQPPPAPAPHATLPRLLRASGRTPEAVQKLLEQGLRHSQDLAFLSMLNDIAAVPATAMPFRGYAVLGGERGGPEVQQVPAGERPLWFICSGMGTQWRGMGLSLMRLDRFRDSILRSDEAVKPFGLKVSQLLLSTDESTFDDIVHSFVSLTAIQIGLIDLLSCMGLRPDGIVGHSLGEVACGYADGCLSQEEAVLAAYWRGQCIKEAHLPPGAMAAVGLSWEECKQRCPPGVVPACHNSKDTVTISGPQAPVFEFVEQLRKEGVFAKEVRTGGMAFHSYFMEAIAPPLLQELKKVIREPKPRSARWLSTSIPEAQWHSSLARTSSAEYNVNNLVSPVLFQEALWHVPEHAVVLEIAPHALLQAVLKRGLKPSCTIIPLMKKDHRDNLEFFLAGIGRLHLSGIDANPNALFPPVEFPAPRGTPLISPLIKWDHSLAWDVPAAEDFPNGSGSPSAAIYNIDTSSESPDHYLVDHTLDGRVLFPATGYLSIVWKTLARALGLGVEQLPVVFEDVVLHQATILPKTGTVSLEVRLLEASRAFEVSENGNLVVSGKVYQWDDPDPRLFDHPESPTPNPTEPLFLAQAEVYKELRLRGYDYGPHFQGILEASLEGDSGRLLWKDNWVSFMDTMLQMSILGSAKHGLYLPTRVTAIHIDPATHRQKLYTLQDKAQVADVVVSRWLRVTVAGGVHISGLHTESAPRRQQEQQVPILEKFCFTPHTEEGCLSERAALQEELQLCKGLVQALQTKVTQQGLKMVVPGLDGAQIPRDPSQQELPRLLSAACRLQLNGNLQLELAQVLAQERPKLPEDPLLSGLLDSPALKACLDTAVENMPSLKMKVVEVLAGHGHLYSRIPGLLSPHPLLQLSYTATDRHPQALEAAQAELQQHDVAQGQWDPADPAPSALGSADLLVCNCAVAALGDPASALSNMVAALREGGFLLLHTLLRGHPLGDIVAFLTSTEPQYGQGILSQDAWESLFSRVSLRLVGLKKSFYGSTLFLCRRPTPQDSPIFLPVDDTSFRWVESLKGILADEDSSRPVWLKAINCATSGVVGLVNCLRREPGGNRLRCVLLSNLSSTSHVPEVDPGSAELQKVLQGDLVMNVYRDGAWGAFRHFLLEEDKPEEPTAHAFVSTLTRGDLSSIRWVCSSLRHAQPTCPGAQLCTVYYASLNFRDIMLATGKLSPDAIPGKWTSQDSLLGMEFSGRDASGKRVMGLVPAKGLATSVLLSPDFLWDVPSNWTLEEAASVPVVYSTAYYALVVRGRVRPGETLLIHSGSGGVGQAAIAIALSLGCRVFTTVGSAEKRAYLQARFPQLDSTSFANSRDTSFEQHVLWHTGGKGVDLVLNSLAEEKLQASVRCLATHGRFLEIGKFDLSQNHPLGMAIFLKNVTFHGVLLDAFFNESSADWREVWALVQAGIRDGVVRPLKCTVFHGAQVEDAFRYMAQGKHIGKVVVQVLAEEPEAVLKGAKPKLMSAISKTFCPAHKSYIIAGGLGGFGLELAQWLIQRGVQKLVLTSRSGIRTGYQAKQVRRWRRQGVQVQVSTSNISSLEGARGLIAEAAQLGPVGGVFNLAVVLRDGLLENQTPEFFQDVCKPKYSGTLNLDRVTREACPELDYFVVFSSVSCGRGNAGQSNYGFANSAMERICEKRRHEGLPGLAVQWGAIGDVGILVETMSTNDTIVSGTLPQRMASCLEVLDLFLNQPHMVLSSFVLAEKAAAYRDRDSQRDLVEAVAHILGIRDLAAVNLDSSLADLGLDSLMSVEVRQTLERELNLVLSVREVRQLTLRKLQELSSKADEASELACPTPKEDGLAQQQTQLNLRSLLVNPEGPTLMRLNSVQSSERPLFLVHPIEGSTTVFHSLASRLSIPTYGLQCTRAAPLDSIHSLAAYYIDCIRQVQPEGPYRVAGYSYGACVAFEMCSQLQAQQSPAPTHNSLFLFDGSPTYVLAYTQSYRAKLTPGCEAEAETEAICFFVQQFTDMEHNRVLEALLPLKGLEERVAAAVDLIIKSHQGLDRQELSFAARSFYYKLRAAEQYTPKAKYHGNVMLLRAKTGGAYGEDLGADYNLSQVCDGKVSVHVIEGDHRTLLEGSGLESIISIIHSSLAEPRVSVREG

Row | SMILES | IC50 [1] | IC50 [2] | IC50 [3] | IC50 [4] | IC50 [5] | IC50 [6] | IC50 [7] | IC50 [8] | IC50 [11] | further results
1 | C=C1C(=O)O[C@@H](CCCCCCCC)[C@@H]1C(=O)O | 46.4 µM | 74.8 µM | > 117 µM | 25.3 µM | 34.3 µM | 38.2 µM | 17.9 µM | 57.7 µM |  | IC50 [9]: 440 to 498 µM
2 | C=C1C(=O)O[C@@H](CCCCCCCC)[C@@H]1CO |  |  |  |  |  |  |  |  |  | inhibition [10]: Active
3 | CCCCCCCCC1OC(=O)C(CSCCNC(=O)CCNC(=O)[C@H](O)C(C)(C)COP(=O)(O)OP(=O)(O)OC[C@H]2O[C@@H](n3cnc4c(N)ncnc43)[C@H](O)[C@@H]2OP(=O)(O)O)C1C(=O)O (mixture of isomers) |  |  |  |  |  |  |  |  | 1.1 µM | 
4 | CCCCCCCCC1OC(=O)C(CSCCNC(=O)CCNC(=O)[C@H](O)C(C)(C)COP(=O)(O)OP(=O)(O)OC[C@H]2O[C@@H](n3cnc4c(N)ncnc43)[C@H](O)[C@@H]2OP(=O)(O)O)C1CO (mixture of isomers) |  |  |  |  |  |  |  |  | 15.7 µM | Activity [12]: Non-Toxic; Activity [13]: Non-Toxic
5 | C=C1C(=O)OC(CCCCCCCC)C1C(=O)O (racemic) | 27.3 µM | 46.4 µM | 63.2 µM | 21.8 µM | 26.8 µM | 19.8 µM | 21.9 µM | 43.8 µM |  | Activity [14]: Toxic; inhibition [15]: 38%; Activity [16]: Toxic; Activity [17]: Toxic; Activity [18]: Toxic
